Experiment [1] addresses Thioredoxin reductase 2, mitochondrial (Rattus norvegicus, UniProt Q9Z0J5). The experiment in a line: Inhibition of rat liver mitochondrial TrxR2 by spectrophotometry.
Experiment [2] addresses T1, Thioredoxin reductase 1, cytoplasmic (Rattus norvegicus, UniProt O89049).
T1 sequence (O89049 whole entry): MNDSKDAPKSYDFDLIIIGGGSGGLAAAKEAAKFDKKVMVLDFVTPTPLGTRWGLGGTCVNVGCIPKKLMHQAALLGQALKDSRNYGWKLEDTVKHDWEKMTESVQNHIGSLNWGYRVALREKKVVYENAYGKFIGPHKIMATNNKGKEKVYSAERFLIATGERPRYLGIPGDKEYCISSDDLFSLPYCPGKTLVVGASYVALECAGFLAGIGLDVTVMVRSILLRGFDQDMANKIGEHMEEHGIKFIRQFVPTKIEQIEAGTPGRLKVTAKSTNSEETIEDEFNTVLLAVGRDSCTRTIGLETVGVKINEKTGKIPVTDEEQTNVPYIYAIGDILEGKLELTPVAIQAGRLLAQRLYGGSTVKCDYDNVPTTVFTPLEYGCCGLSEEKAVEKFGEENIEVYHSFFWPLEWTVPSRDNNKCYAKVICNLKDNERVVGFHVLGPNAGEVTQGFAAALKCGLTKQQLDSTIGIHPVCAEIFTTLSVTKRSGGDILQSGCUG
Description: Inhibition of rat liver cytosolic TrxR1 by spectrophotometry.

The target in experiment [3] is T2, Thioredoxin reductase 1, cytoplasmic (Rattus norvegicus) (UniProt O89049).
T2 sequence (whole entry): T1 sequence (O89049 whole entry)
The experiment in a line: Inhibition of rat liver cytosolic TrxR1 at 20 uM after 2 mins by spectrophotometry.

Experiment [4] has as its target Thioredoxin reductase 2, mitochondrial (Rattus norvegicus) (UniProt Q9Z0J5). The experiment in a line: Inhibition of rat liver mitochondrial TrxR2 at 100 uM by spectrophotometry in presence of 0.25 mM NADPH.
Experiment [5] deals with T2, Thioredoxin reductase 1, cytoplasmic (Rattus norvegicus). Description: Inhibition of rat liver cytosolic TrxR1 at 20 uM after 1 hr by spectrophotometry.
Experiment [6] shares this target. Description: Inhibition of rat liver cytosolic TrxR1 at 100 uM by spectrophotometry in presence of 0.25 mM NADPH.
Another experiment has as its target T3, Glutathione reductase (Saccharomyces cerevisiae S288c, UniProt P41921).
T3 sequence (P41921 whole entry): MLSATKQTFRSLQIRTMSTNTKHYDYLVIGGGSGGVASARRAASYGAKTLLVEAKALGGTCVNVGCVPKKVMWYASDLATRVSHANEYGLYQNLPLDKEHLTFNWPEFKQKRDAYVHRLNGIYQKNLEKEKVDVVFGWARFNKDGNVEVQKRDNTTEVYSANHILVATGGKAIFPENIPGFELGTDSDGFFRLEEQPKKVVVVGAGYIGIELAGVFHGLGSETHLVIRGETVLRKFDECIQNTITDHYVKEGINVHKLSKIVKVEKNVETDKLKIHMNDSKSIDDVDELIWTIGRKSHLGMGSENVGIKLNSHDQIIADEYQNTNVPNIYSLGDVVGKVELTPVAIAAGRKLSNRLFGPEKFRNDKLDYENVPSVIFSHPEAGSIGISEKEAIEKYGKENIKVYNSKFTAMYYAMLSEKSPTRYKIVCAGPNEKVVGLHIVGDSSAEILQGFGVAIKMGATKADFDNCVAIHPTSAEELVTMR
The experiment in a line: Inhibition of yeast glutathione reductase by spectrophotometry.

The target of experiment [7] is T2, Thioredoxin reductase 1, cytoplasmic (Rattus norvegicus). The experiment in a line: Inhibition of rat liver cytosolic TrxR1 at 50 to 100 uM by spectrophotometry in presence of 0.025 mM NADPH.
For experiment [8], the target named is T1, Thioredoxin reductase 1, cytoplasmic. The experiment in a line: Mixed-type inhibition of rat liver cytosolic TrxR1 by Lineweaver-Burk plot analysis.
Experiment [9] shares this target. The experiment in a line: Mixed-type inhibition of rat liver cytosolic TrxR1 at protein-substrate complex by Lineweaver-Burk plot analysis.
Experiment [10] addresses T2, Thioredoxin reductase 1, cytoplasmic (Rattus norvegicus). Description: Inhibition of rat liver cytosolic TrxR1 at 5 uM after 2 mins by spectrophotometry.

Active and inactive are the calls of the source. The rule behind the calls is not given here.

The text below walks through data of ChEMBL document CHEMBL1641523, “Hypericins and thioredoxin reductase: Biochemical and docking studies disclose the molecular basis for effective inhibition by naphthodianthrones” (Bioorg Med Chem, 2011).

Chain of Thioredoxin reductase 2, mitochondrial (Q9Z0J5 whole entry): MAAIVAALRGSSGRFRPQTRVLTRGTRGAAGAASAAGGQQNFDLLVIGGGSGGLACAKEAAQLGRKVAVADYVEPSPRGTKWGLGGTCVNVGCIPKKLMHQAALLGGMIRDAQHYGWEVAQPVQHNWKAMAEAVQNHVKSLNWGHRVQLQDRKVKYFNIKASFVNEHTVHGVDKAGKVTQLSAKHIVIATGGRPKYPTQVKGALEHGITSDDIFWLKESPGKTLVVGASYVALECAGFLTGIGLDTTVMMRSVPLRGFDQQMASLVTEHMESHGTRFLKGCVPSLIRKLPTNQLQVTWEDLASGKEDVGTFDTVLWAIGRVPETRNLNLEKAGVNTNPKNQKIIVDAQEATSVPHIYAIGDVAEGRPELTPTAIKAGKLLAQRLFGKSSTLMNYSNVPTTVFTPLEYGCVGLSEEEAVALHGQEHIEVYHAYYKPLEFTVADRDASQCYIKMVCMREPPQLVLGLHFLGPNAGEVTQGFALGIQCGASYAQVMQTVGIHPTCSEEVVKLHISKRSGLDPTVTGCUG
Chain of Thioredoxin reductase 2, mitochondrial (Rattus norvegicus) (Q9Z0J5 whole entry): as above

Take `O=C1c2cccc(O)c2C(=O)c2c(O)cc(CO)cc21` [ALOE-EMODIN]: the IC50 is greater than 200 µM in experiment [1] (read-out: IC50) and 180 µM in experiment [2] (read-out: IC50).
The corresponding values for `O=C1c2c(O)cccc2C([C@@H]2O[C@H](CO)[C@@H](O)[C@H](O)[C@H]2O)c2cc(CO)cc(O)c21` (some centres not stated) [ALOIN] are greater than 200 µM and greater than 200 µM.
The corresponding values for `O=C1c2ccccc2Cc2ccccc21` [ANTHRONE] are greater than 200 µM and greater than 200 µM.
For `Cc1cc(O)c2c(c1)C(=O)c1cccc(O)c1C2=O` [CHRYSOPHANOL], in that order: 181 µM and 194 µM.
With `O=C1c2cccc(O)c2C(=O)c2c(O)cccc21` [DANTHRON], the IC50 in [1] (read-out: IC50) and in experiment [2] (read-out: IC50) was greater than 200 µM each time.
For the molecule `Cc1cc(O)c2c(c1)C(=O)c1cc(O[C@@H]3O[C@@H](C)[C@H](O)[C@@H](O)[C@H]3O)cc(O)c1C2=O` [FRANGULIN A], the IC50 in [1] (read-out: IC50) and in experiment [2] (read-out: IC50) was greater than 200 µM throughout.
For `Cc1cc(O)c2c(=O)c3c(O)cc(O)c4c5c(O)cc(O)c6c(=O)c7c(O)cc(C)c8c1c2c(c34)c(c78)c65` [HYPERICIN], the inhibition in [3] was determined as 20%; in [5], 60%. The inhibition entry in experiment [4] and in [6] was “inactive” throughout. Further, the IC50 was 3.67 µM on Glutathione reductase; 49 µM in experiment [1] (read-out: IC50); 43.2 µM in [1] (read-out: pIC50 (converted)); 198 µM in experiment [2] (read-out: IC50); 158 µM in experiment [2] (read-out: pIC50 (converted)).
`COc1cc(O)c2c(c1)C(=O)c1cc(C)cc(O)c1C2=O` [PHYSCION]: the IC50 in experiment [1] (read-out: IC50) worked out at 132 µM; in experiment [2] (read-out: IC50), 185 µM.
As to `Cc1cc(O)c2c(=O)c3c(O)cc(O)c4c5c(O)cc(O)c6c(=O)c7c(O)cc(CO)c8c1c2c(c34)c(c65)c78` [PSEUDOHYPERICIN], the inhibition entry in experiment [7], in experiment [4] and in experiment [6] was “Active” each time. Further, the Ki in [8] stood at 1.9 µM; in [9], 8.1 µM. Also, the IC50 on Glutathione reductase was 2.2 µM; in experiment [1] (read-out: IC50), 7.9 µM; in [1] (read-out: pIC50 (converted)), 7.45 µM; in experiment [2] (read-out: IC50), 4.6 µM; in [2] (read-out: pIC50 (converted)), 4.41 µM. Further, the inhibition in experiment [10] was 50%.
Regarding `O=C1c2ccccc2C(=O)c2c(O)ccc(O)c21` [QUINIZARIN], the IC50 in [1] (read-out: IC50) and in experiment [2] (read-out: IC50) was greater than 200 µM in each case.
Consider `O=C(O)c1cc(O)c2c(c1)C(=O)c1cccc(O)c1C2=O` [RHEIN], for which the IC50 in [1] (read-out: IC50) worked out at 123 µM; in experiment [2] (read-out: IC50) it was 84 µM.
The corresponding values for `O=C(O)c1cc(O)c2c(c1)C([C@H]1c3cc(C(=O)O)cc(O)c3C(=O)c3c(O[C@@H]4O[C@H](CO)[C@@H](O)[C@H](O)[C@H]4O)cccc31)c1cccc(O[C@@H]3O[C@H](CO)[C@@H](O)[C@H](O)[C@H]3O)c1C2=O` (some centres not stated) [SENNOSIDE A,B] are greater than 200 µM and greater than 200 µM.
The corresponding values for `Cc1cc(O)c2c(c1)C(=O)c1c(c(O)cc(O)c1-c1c(O[C@@H]3O[C@H](CO)[C@@H](O)[C@H](O)[C@H]3O)cc(O)c3c1C(=O)c1cc(C)cc(O)c1C3=O)C2=O` [SKYRIN GLUCOSIDE] are greater than 200 µM and greater than 200 µM.

Broadly, the inhibition is how much of the control response was suppressed. A word on the Ki: it is a measure of affinity in units of concentration, obtained from inhibition or displacement. Read a high Ki as weaker binding.
